Results as given in patent US4544512A, “Tridecyloxy- or tetradecyloxy-propane derivatives” (Takeda Chemical Industries, Ltd., priority 1980, dated 1985).
Converted amounts (≈) assume the structure as drawn. Like-named read-outs stand apart in the source and are kept apart here.

Tests used:
Assay type in all cases: cell-based
[1] = tested on: Cochliobolus miyabeanus; experiment: Antifungal activity, serial dilution method (MIC); conditions: Bipolaris oryzae, read-out: MIC Cochliobolus miyabeanus (rice Helminthosporium leaf spot)
[2] = tested on: Pyricularia oryzae; experiment: microbe, parasite or virus in culture; conditions: read-out: MIC Pyricularia oryzae (rice blast)
[3] = tested on: Leptosphaeria salvinii; experiment: Antifungal activity, serial dilution method (MIC); conditions: Nakataea oryzae, read-out: MIC Leptosphaeria salvinii (rice stem rot)
[4] = tested on: Alternaria solani; experiment: Antifungal activity, serial dilution method (MIC); conditions: 1% glucose-bouillon agar medium, read-out: MIC Alternaria solani (potato early blight)
[5] = tested on: Gibberella fujikuroi; experiment: Antifungal activity, serial dilution method (MIC); conditions: Fusarium fujikuroi, read-out: MIC Gibberella fujikuroi (rice Bakanae-disease)
[6] = tested on: Botrytis cinerea; experiment: Antifungal activity, serial dilution method (MIC); conditions: read-out: MIC Botrytis cinerea (gray mold)
[7] = tested on: Colletotrichum lagenarium; experiment: Antifungal activity, serial dilution method (MIC); conditions: Colletotrichum orbiculare, read-out: MIC Colletotrichum lagenarium (cucumber anthracnose)
[8] = tested on: Trichophyton mentagrophytes IFO (DT-66); experiment: Antitrichophyton activity, serial dilution method (MIC); conditions: Sabouraud's agar medium
Method: (§1) Referring to the antitrichophyton activity shown in Table 7, MIC values of tested compounds were determined by the serial dilution method using Sabouraud's agar medium.

[9] = tested on: Trichophyton rubrum IFO 5467 (DT-63); experiment: as above; conditions: IFO5467, Sabouraud's agar medium
Method: as §1

[10] = tested on: mouse myeloid leukemia M1 cells; experiment: Induced differentiation of mouse myeloid leukemia M1 cells; conditions: at optimal dose: C00019 1 μg/ml, drawing 20 2 μg/ml; for Phagocytic cells: None 2.0 %; for Morphological change: None 2.1 %; for Lysozyme activity: None 2.2
Method: By employing soft-agar medium having similar components to those in Test Example 1, incubation of myeloid leukemia (M1) cells harvested from mice was conducted in the presence of the test compound in its optimal concentration. Observation on various biological and biochemical properties caused by induced differentiation was conducted. In Table 2 are given the results obtained by determination of the degree of the induced differentiation employing, as the indexes, among those properties, morphological changes (matured granulocytes, matured macrophages, others caused by changes in appearance of cells at the stage of differentiation),phagocytic activity (plastic small pieces.phagocytosis) and lysozyme activity. Additionally stating, these morphological changes were not observed under the conditions devoid of the drugs.

[11] = tested on: human promyelocytic leukemia HL-60 cells; experiment: Induced differentiation of human promyelocytic leukemia HL-60 cells; conditions: six day incubation; optimal dose: C00021 1 μg/ml, drawing 22 4 μg/ml
Method: By employing soft-agar medium, incubation of human promyelocytic leukemia HL-60 cells was conducted in the presence of a drug at its optimal concentration. It was observed that the leukemia HL-60 cells were gradually changing into mature myeloid cells or phagocytic cells as the induced differentiation proceeded. After six day incubation, number of these cells was counted, and the respective ratios (%) relative to the total number of these cells were calculated, as shown in Table 3. Additionally stating, these changes were not observed under the conditions devoid of the drugs.

[12] = tested on: Tetrahymena pyriformis W; experiment: Antiprotozoal activity, broth dilution method (MIC); conditions: 28° C., 44-48 hours, read-out: MIC against Tetrahymena pyriformis W
Method: Referring to the antiprotozoal activity given in Table 4, the microbial growth inhibiting activity (MIC) of each compound of this invention was assayed by the broth dilution method by incubating Tetrahymena pyriformis W strain as the test organism at 28° C. for 44-48 hours, using a test culture medium comprising 20 g of Tryptose peptine (Difco), 1 g of yeast extract, 2 g of glucose. 1,000 ml of distilled water and 10 ml of 1M phosphate buffer (pH 7.0).

[13] = 1% glucose-bouillon agar medium

SMILES | MIC [1] [µg/mL] | MIC [2] [µg/mL] | MIC [3, 13] [µg/mL] | MIC [4] [µg/mL] | MIC [5, 13] [µg/mL] | MIC [7, 13] [µg/mL] | further results
CCCCCCCCCCCCOCC(COP(=O)([O-])OCC[N+](C)(C)C)OC (stereo not drawn) [Compound (A) R = C12 H25, reference compound] | > 100 | 25 (≈ 56.9 µM) | 25 (≈ 56.9 µM) | 50 (≈ 114 µM) | > 100 | 12.5 (≈ 28.4 µM) | MIC [6, 13]: 50 µg/mL (≈ 114 µM)
CCCCCCCCCCCCCOCC(COP(=O)([O-])OCC[N+](C)(C)C)OC (stereo not drawn) [Compound (A) R = C13 H27] | > 100 | 12.5 (≈ 27.6 µM) | 6.25 (≈ 13.8 µM) | 50 (≈ 110 µM) | > 100 | 6.25 (≈ 13.8 µM) | MIC [6]: 12.5 µg/mL (≈ 27.6 µM)
CCCCCCCCCCCCCCOCC(COP(=O)([O-])OCC[N+](C)(C)C)OC (stereo not drawn) [Compound (A) R = C14 H29] | 12.5 (≈ 26.7 µM) | 3.12 (≈ 6.67 µM) |  | 100 (≈ 214 µM) | 25 (≈ 53.5 µM) | 25 (≈ 53.5 µM) | MIC [3]: 3.12 µg/mL (≈ 6.67 µM); MIC [6, 13]: 6.25 µg/mL (≈ 13.4 µM)
CCCCCCCCCCCCCCCCCCOCC(COP(=O)([O-])OCC[N+](C)(C)C)OC (stereo not drawn) [Compound (A) R = C18 H37, reference compound] | > 100 | 6.25 (≈ 11.9 µM) | 12.5 (≈ 23.9 µM) | > 100 | > 100 | > 100 | MIC [6, 13]: 25 µg/mL (≈ 47.7 µM)
CCCCCCCCCCCCOCCCOP(=O)([O-])OCC[N+](C)(C)C [Compound (B) R = C12 H25, reference compound] | 6.25 (≈ 15.3 µM) | 12.5 (≈ 30.5 µM) | 25 (≈ 61 µM) | 50 (≈ 122 µM) | 100 (≈ 244 µM) |  | MIC [6, 13]: 25 µg/mL (≈ 61 µM); MIC [7]: 6.25 µg/mL (≈ 15.3 µM)
CCCCCCCCCCCCCOCCCOP(=O)([O-])OCC[N+](C)(C)C [Compound (B) R = C13 H27] | 6.25 (≈ 14.8 µM) | 6.25 (≈ 14.8 µM) | 12.5 (≈ 29.5 µM) | 25 (≈ 59 µM) | 25 (≈ 59 µM) | 1.56 (≈ 3.68 µM) | MIC [6]: 6.25 µg/mL (≈ 14.8 µM)
CCCCCCCCCCCCCCOCCCOP(=O)([O-])OCC[N+](C)(C)C [Compound (B) R = C14 H29] | 12.5 (≈ 28.6 µM) | 6.25 (≈ 14.3 µM) |  | 50 (≈ 114 µM) |  |  | MIC [3]: 6.25 µg/mL (≈ 14.3 µM); MIC [5]: 12.5 µg/mL (≈ 28.6 µM); MIC [6]: 6.25 µg/mL (≈ 14.3 µM); MIC [7]: 6.25 µg/mL (≈ 14.3 µM)
CCCCCCCCCCCCCCCCCCOCCCOP(=O)([O-])OCC[N+](C)(C)C [Compound (B) R = C18 H37, reference compound] | > 100 | 12.5 (≈ 25.3 µM) | 50 (≈ 101 µM) | > 100 | > 100 | > 100 | MIC [6, 13]: 25 µg/mL (≈ 50.6 µM)
CCCCCCCCCCCCOCC(COP(=O)([O-])OCC[N+](C)(C)C)OC (stereo not drawn) [R = C12 H25, A = drawing 32, reference compound] |  |  |  |  |  |  | MIC [8]: 25 µg/mL (≈ 56.9 µM); MIC [9]: 6.25 µg/mL (≈ 14.2 µM)
CCCCCCCCCCCCCOCC(COP(=O)([O-])OCC[N+](C)(C)C)OC (stereo not drawn) [R = C13 H27, A = drawing 33] |  |  |  |  |  |  | MIC [8]: 6.25 µg/mL (≈ 13.8 µM); MIC [9]: 3.12 µg/mL (≈ 6.88 µM)
CCCCCCCCCCCCCOCC(COP(=O)([O-])OCC[n+]1ccccc1)OC (stereo not drawn) [R = C13 H27, A = drawing 34] |  |  |  |  |  |  | MIC [8]: 12.5 µg/mL (≈ 26.4 µM); MIC [9]: 3.12 µg/mL (≈ 6.59 µM)
CCCCCCCCCCCCCCOCC(COP(=O)([O-])OCC[N+](C)(C)C)OC (stereo not drawn) [R = C14 H29, A = drawing 35] |  |  |  |  |  |  | MIC [8]: 3.12 µg/mL (≈ 6.67 µM); MIC [9]: 1.56 µg/mL (≈ 3.34 µM)
CCCCCCCCCCCCCCOCC(COP(=O)([O-])OCC[n+]1ccccc1)OC (stereo not drawn) [R = C14 H29, A = drawing 36] |  |  |  |  |  |  | MIC [8]: 3.12 µg/mL (≈ 6.4 µM); MIC [9]: 1.56 µg/mL (≈ 3.2 µM)
CCCCCCCCCCCCCCCCCCOCC(COP(=O)([O-])OCC[N+](C)(C)C)OC (stereo not drawn) [drawing 19, reference compound] |  |  |  |  |  |  | Phagocytic cells [10]: 13.4%; Morphological change [10]: 34.7%; Lysozyme activity [10]: 31.1 units/mg protein
CCCCCCCCCCCCCCOCC(COP(=O)([O-])OCC[N+](C)(C)C)OC (stereo not drawn) [drawing 20] |  |  |  |  |  |  | Phagocytic cells [10]: 25.9%; Morphological change [10]: 53.4%; Lysozyme activity [10]: 80.1 units/mg protein
CCCCCCCCCCCCCCCCCCOCC(COP(=O)([O-])OCC[N+](C)(C)C)OC (stereo not drawn) [drawing 21, reference compound] |  |  |  |  |  |  | Mature myeloid cells [11]: 43.0%; NBT (nitro blue tetrazolium) reduction [11]: 47.8%; Phagocytic cells [11]: 39.8%
CCCCCCCCCCCCCCOCC(COP(=O)([O-])OCC[N+](C)(C)C)OC (stereo not drawn) [drawing 22] |  |  |  |  |  |  | Mature myeloid cells [11]: 91.3%; NBT (nitro blue tetrazolium) reduction [11]: 87.0%; Phagocytic cells [11]: 68.2%
CCCCCCCCCCCCOCC(COP(=O)([O-])OCC[N+](C)(C)C)OC (stereo not drawn) [drawing 23 R = C12 H25] |  |  |  |  |  |  | MIC [12]: 0.4 µg/mL (≈ 0.91 µM)
CCCCCCCCCCCCCCOCC(COP(=O)([O-])OCC[N+](C)(C)C)OC (stereo not drawn) [drawing 23 R = C14 H29] |  |  |  |  |  |  | MIC [12]: 0.2 µg/mL (≈ 0.428 µM)
CCCCCCCCCCCCCCCCCCOCC(COP(=O)([O-])OCC[N+](C)(C)C)OC (stereo not drawn) [drawing 23 R = C18 H37] |  |  |  |  |  |  | MIC [12]: 1 µg/mL (≈ 1.91 µM)
